{
  "source": "patent US11235020B2",
  "about": "“Methods and compositions for inhibiting glyoxalase 1 (GLO1)” (priority 2013, dated 2022)",
  "key": {"[1]": {"test_system": "GABAA receptors in macropatches excised from CGN", "assay": "Macropatch recording from CGN", "type": "cell-based, rat", "description": "Macropatch recording: Macropatch recording was performed with 1.5-2 MΩ electrodes filled with bath solution. The inside of excised patches was perfused with electrode solution containing the indicated reagents. SR was added to the electrode where indicated."}, "[2]": {"test_system": "picrotoxin-induced seizures", "assay": "Picrotoxin-induced seizures assessed by EEG", "type": "in vivo, mouse", "conditions": "MG 200 mg/kg pre-treatment, picrotoxin 7 mg/kg", "description": "FIGS. 37A-37D: Exogenous MG attenuates picrotoxin-induced seizures as assessed by EEG. B6 mice were pre-treated with vehicle or MG (200 mg/kg) prior to seizure induction with picrotoxin (7 mg/kg). […] P=0.036 by Mann-Whitney U test. […] P=0.028 by Mann-Whitney U test. […] P=0.036 by Mann-Whitney U test. […] P=0.014 by Mann-Whitney U test. […] P=0.028 by Mann-Whitney U test. FIG. 37D, Representative EEG recordings of a mouse during baseline period (prior to any injections), after acute saline and picrotoxin (7 mg/kg) injections, or after acute MG (200 mg/kg) and picrotoxin (7 mg/kg) injections. […] Seizures are associated with high muscle activity, as indicated by the electromyography (EMG) trace. […] EEG traces correspond to four differential recordings from each of four subdural electrodes (EEG1 and EEG2 (right cortical hemisphere), EEG3 and EEG4 (left cortical hemisphere)). EMG activity was recorded using two fine wires placed into the neck muscle. Calibration mark: 500 μV/mm and 1 second. Data are mean±SEM. n=4 vehicle, 5 MG (200 mg/kg). *P<0.05 versus vehicle-treated group as determined by Mann-Whitney U tests.\nIn order to validate these behavioral data, the inventors assessed seizure activity by EEG analysis of mice treated with 7 mg/kg picrotoxin. […] Thus, MG attenuates seizures induced by GABAA receptor blockade at both the behavioral and EEG level."}, "[3]": {"test_system": "depression-like behavior in mice", "assay": "Tail suspension test (TST)", "type": "in vivo, mouse", "conditions": "MG 50 mg/kg i.p., acute, 10 min before test, B6 mice", "description": "Mice were suspended by their tails using adhesive tape attached to a bar elevated approximately 46 cm above a table. The apparatus was illuminated to approximately 1,000 lux. Mice were tested individually, and time spent immobile was scored manually for six minutes. For MG studies, mice were treated with vehicle (0.9% saline) or crude MG (Sigma-Aldrich, 50 mg/kg) by i.p. injection ten minutes before the test. Behavior was scored for five minutes."}, "[4]": {"test_system": "depression-like behavior in mice", "conditions": "intracerebroventricular MG for six days (Hambsch 2010); cited from earlier work"}, "mice": {"test_system": "mice", "assay": "Hypothermia (rectal temperature)", "type": "in vivo, mouse", "conditions": "300 mg/kg i.p., B6 mice", "description": "Hypothermia: Thirty minutes post-injection, rectal temperature was measured with a digital thermometer."}, "[5]": {"test_system": "anxiety-like behavior and locomotion in mice", "assay": "Open field (OF) test", "type": "in vivo, mouse", "description": "OF test: Mice were placed into the center of the OF, and activity was monitored for five to ten minutes. The apparatus was illuminated to approximately 40 lux. Data were collected and processed using the manufacturer's software (AccuScan Instruments).\nOF test: Ten minutes post-injection, mice were placed into the center of the OF. The apparatus was illuminated to approximately 40 lux. Behavior was measured as described above.\nOF test replication studies: Ten to twenty minutes post-injection, mice were tested in the OF for five to ten minutes. In some experiments, behavior was scored as described above. In other experiments, mice were tested in the OF, and behavior was automatically scored by the Noldus Ethovision System. For mice tested in the Noldus system, the apparatus was illuminated to approximately 1,000 lux.\nChronic MG administration: For five days, mice were injected twice daily with vehicle or MG (4 mg/kg). Twelve hours after the final injection, mice were tested in the OF as described above.\nPure MG: Pure MG was obtained from Dr. John Termini at the City of Hope, Duarte, Calif. It was administered at the indicated doses by i.p. injection. Mice were tested as described above.\nOF test: Two hours post-injection, mice were tested in the OF test as described above. The center size was 10×10 cm. The apparatus was illuminated to approximately 40 lux."}, "GABAB receptors": {"biological_target": "T1, GABAB receptors (Rattus norvegicus, UniProt Q9Z0U4)", "T1 construct": "endogenous in cells; host or cells: primary rat cerebellar granule neurons", "T1 sequence (Q9Z0U4 17-960 limits assumed)": "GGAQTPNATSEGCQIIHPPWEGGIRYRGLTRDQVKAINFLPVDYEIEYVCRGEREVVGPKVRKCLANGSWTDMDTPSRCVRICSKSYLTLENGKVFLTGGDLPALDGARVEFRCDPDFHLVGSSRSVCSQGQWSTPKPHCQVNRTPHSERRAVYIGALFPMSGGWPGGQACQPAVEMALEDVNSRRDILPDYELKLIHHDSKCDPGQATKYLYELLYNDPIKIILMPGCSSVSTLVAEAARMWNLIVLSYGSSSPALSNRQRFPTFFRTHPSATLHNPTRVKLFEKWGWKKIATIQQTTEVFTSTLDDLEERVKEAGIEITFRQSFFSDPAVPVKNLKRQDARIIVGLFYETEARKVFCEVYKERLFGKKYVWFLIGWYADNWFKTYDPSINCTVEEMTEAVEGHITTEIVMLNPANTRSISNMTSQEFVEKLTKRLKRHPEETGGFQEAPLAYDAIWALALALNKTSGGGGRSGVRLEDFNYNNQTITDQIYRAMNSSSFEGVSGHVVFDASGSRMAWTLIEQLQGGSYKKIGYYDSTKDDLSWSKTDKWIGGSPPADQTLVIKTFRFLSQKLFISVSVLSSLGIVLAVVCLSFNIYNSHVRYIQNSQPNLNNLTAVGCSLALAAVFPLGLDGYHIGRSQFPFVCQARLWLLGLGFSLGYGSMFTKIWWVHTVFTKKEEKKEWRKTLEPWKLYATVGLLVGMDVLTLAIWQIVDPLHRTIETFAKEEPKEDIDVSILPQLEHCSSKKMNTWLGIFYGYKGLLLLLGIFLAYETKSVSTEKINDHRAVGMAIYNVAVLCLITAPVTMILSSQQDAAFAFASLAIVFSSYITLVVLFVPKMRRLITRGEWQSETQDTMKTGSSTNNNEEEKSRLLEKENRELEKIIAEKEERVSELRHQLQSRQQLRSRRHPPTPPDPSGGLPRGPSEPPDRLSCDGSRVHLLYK", "T1 sequence (O88871 41-940 partner)": "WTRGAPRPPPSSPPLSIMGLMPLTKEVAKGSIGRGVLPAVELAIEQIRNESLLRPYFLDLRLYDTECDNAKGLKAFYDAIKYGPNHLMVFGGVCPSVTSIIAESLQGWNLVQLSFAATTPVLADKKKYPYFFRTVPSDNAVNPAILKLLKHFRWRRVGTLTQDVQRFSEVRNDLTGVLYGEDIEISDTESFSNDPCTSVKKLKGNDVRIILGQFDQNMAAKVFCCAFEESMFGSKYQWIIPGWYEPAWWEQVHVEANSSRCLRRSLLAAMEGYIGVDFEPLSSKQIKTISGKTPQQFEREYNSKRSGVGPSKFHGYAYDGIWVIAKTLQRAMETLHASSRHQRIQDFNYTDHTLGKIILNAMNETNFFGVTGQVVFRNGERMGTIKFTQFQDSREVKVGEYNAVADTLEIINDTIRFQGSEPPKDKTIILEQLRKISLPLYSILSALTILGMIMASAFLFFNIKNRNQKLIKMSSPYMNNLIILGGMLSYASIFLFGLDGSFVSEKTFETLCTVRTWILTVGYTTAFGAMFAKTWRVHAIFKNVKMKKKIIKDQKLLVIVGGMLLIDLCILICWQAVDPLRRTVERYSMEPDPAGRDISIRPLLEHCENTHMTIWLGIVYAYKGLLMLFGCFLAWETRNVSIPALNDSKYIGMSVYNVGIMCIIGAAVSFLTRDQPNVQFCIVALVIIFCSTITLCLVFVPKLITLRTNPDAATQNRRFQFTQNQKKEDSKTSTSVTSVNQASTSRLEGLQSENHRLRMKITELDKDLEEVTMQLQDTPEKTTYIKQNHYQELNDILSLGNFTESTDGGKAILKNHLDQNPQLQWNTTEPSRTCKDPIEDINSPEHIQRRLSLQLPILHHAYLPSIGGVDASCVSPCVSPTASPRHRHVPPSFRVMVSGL", "assay": "GABAB receptor activation (IKIR) in CGN", "type": "cell-based", "conditions": "10 μM MG in the presence of SR", "text": "Potassium currents: Voltage-gated potassium channel currents were evoked using a previously reported protocol with modifications (Plant 2006). The whole voltage-gated potassium current, IK+, and the delayed rectifier current, IDR were isolated with two voltage protocols. First, IK+ was evoked by 250 ms test pulses to between −80 and 90 mV from −80 mV following a 250 ms pre-pulse to −140 mV. Then, the protocol was repeated using a −50 mV pre-pulse to inactivate IK+ and isolate IDR. The inactivating component of the current, IKA, was isolated by subtracting IDR from IK+ recorded in the same cells. The standing outward potassium leak current, IKso, and the inwardly rectifying potassium current, IKIR, were studied as previously reported with modifications (Plant 2002). Cells were held at −20 mV, and the membrane potential was ramped to −120 mV over a period of 100 ms before returning to −20 mV. Ramp hyperpolarizations were repeated every 20 seconds."}, "glutamate receptors": {"test_system": "glutamate receptors", "assay": "Glutamatergic currents in CGN", "type": "cell-based, rat", "conditions": "10 μM MG", "text": "Ligand-gated currents: Ligand-gated currents were studied in voltage-clamp mode by application of reagents to cells held at −50 mV. GABAergic and glycinergic currents were activated by application of GABA and glycine and antagonized by application of SR and strychnine, respectively (Kaneda 1995). Glutamatergic currents were activated by 1-glutamate and antagonized by CNQX and AP-5 (Wyllie 1994)."}, "[6]": {"conditions": "MG 50 mg/kg i.p., male WT B6 mice, 10 min post-injection"}},
  "note": "Values joined by “and” are separate entries in the source; they are usually repeats but may differ in a detail not shown here. Equal values may be shown once.",
  "data": [
    {"smiles": "CC(=O)C=O", "note": "[MG, methylglyoxal]", "values": [
      {"measurement": "latency of inward current after application to the intracellular face", "setting": "[1]; 10 μM MG", "value": "approximately 40 seconds"},
      {"measurement": "current on application to the intracellular face of macropatches", "setting": "[1]; 10 μM, SR 10 μM at the extracellular face (pipette)", "value": "elicited an inward current"},
      {"measurement": "duration of EEG-confirmed seizures", "setting": "[2]", "value": "reduced seizure duration"},
      {"measurement": "latency to first EEG-confirmed seizure", "setting": "[2]", "value": "delayed seizure onset"},
      {"measurement": "number of EEG-confirmed seizures", "setting": "[2]", "value": "reduced the number of seizures"},
      {"measurement": "duration of immobility in the TST", "setting": "[3]", "value": "did not affect the duration of immobility"},
      {"measurement": "immobility in the TST", "setting": "[4]", "value": "reduced immobility in the TST"},
      {"measurement": "hypothermia", "setting": "mice", "value": "hypothermia"},
      {"measurement": "anxiety-like behavior in the OF after chronic treatment", "setting": "[5]; MG 4 mg/kg i.p. twice daily for five days, tested on the sixth day", "value": "significant reduction in anxiety-like behavior"},
      {"measurement": "center time in the OF", "setting": "[5]; MG 50 mg/kg i.p., CD-1 mice", "value": "increased center time in the OF"},
      {"measurement": "distance traveled in the OF", "setting": "[5]; MG 50 mg/kg i.p., CD-1 mice", "value": "without affecting distance traveled"},
      {"measurement": "anxiety-like behavior in the OF in mice with the Glo1 duplication", "setting": "[5]; MG 50 mg/kg i.p., CD-1 mice with Glo1 duplication", "value": "reduced anxiety-like behavior in mice with the Glo1 duplication"},
      {"measurement": "distance traveled in the OF", "setting": "[5]; [6]", "value": "without affecting distance traveled"},
      {"measurement": "increase in center time in the OF", "setting": "[5]; [6]", "value": "approximately 30%"},
      {"measurement": "persistence of anxiolytic effect after injection", "setting": "[5]; MG 50 mg/kg i.p., separate cohorts tested at different intervals", "value": "≤ 20", "unit": "min"},
      {"measurement": "Cohen's d, meta-analysis of anxiolytic effect in the OF test", "setting": "[5]; MG 50 mg/kg i.p., seven experiments, total n = 181, fixed-effect model", "value": "0.78 and 0.7798"},
      {"measurement": "locomotion in the OF", "setting": "[5]; MG 100 mg/kg, WT B6 mice", "value": "decreased locomotion in the OF"},
      {"measurement": "activation of GABAB receptors", "setting": "GABAB receptors", "value": "did not activate GABAB receptors"},
      {"measurement": "activation of glutamate receptors", "setting": "glutamate receptors", "value": "did not activate"}
    ]}
  ]
}
